Reference: paper PMC4432651, “Dynamic interplay between catalytic and lectin domains of GalNAc-transferases modulates protein O-glycosylation” (Nature Communications, 2015)
Where a SMILES comes first, the peptide text is derived from it. The star is where a group is joined. αGalNAc = CC(=O)N[C@@H]1[C@@H](O)[C@@H](O)[C@@H](CO)O[C@@H]1*

Biological target: T1, GalNAc-T2 (Homo sapiens, UniProt Q10471)
T1 construct: made in house
Assay: SAXS with Ensemble Optimization Method: GalNAc-T2 conformations/oligomers with ligands
Conditions: for Rg from p(r) (GNOM) / Dmax / Rg (Guinier): GalNAc-T2 5 mg/ml, 25 mM TRIS pH 7.5, 10 mM MnCl2, 10 °C; for Dmax: maximum intramolecular distance, GNOM
Method: SAXS measurements were performed at the European Molecular Biology Laboratory on the storage ring PETRA-III (DESY-Hamburg) on the P12 beamline equipped with a robotic sample changer and a PILATUS-2M. The analysis of the SAXS data was performed by using the EOM[31]. Additional details are in Supplementary Methods. […]
Small-angle X-ray scattering (SAXS) and data analysis
All experiments were performed in a buffer consisting of 25 mM TRIS pH 7.5, 10 mM MnCl2. The first set of experiments contained three different protein concentrations: 10 mg/ml (180 µM), 5 mg/ml (90 µM), 2.5 mg/ml (45 µM) and 1 […]
mg/ml (18 µM). The protein was measured alone and in the presence of ten times molar excess of UDP, UDP-GalNAc, UDP-EA2 peptide, MUC5AC-13, UDP-MUC5AC-13, MUC5AC, and UDP-MUC5AC. The second set of experiments was carried out with the protein concentration fixed at 5 mg/ml, and increasing concentrations of UDP (450 µM, 900 µM, 1.8 mM, 4.5 mM and 9 mM). The concentration of MUC5AC-13 was also changed as follows: 1 mM, 5 mM and 7.5 […]
Synchrotron SAXS measurements were performed at the European Molecular
Biology Laboratory (EMBL) on the storage ring PETRA-III (DESY-Hamburg) on the P12 beamline equipped with a robotic sample changer and a PILATUS-2M. The sample-detector distance was 3.1 m. The scattering intensity, I(s), was recorded at 10 °C in a momentum transfer range of 0.007<s<0.444 Å -1, where s = (4πsinθ )/λ , 2θ is the scattering angle, and λ = 1.24 Å is the X-ray wavelength. Twenty consecutive 0.05 second measurements were performed for protein samples and buffers to monitor for radiation damage that were subsequently averaged (no systematic radiation effects were observed). Buffer scattering profiles were subtracted from the sample ones using standard procedures 8. The values of the forward scattering, I(0), and radii of gyration, Rg, were calculated from the experimental SAXS patterns using Guinier’s approximation (Supplementary Fig. 4 and 5), I(s) = I(0)exp(-s2Rg2/3), which is valid in the range sRg < 1.3.
Structural analysis of the SAXS data was performed using the Ensemble Optimization Method (EOM)9. A pool of 10,000 monomeric structures of GalNac-T2 was constructed with the program RanCh9 by connecting three-dimensional structures of the catalytic and the lectin domains, extracted from the crystallographic structure 2FFU, with a flexible linker of 12 residues with random coil conformations. To […]
properly describe the data, these monomeric ensembles were enriched with 100 equivalent curves corresponding to one dimeric arrangement. As we tested three dimers, we built three different ensembles with the same 10,000 monomeric conformations and 100 copies of each one of the dimers. The three different dimers used for SAXS are shown in Supplementary Fig. 3c and correspond to three different crystal structures obtained under different conditions.
The scattering profiles of all members of the pool were computed with the program CRYSOL using standard parameters10. The pool of structures/profiles was submitted to the genetic algorithm (GA) with the aim to select a subensemble of 50 structures/curves with the capacity to collectively describe the experimental SAXS […]
was repeated 200 times starting from different randomly selected subensembles, and the resulting solutions were analysed together. The same pool was used to describe all the measured data. Results were quantitatively analysed by displaying the Rg distributions of the selected ensembles and the relative population of monomeric and dimeric species.
Three different dimeric arrangements were introduced individually in the pool. In all three cases the dimers display similar contacts between the lectin domains and the lectin domain of one monomer with the catalytic domain of a second monomer (Supplementary Fig. 3c). We can distinguish the crystallographic dimers by the buried area parameter inferred from the PISA server. The dimers present in the crystal structure of GalNAc-T2-UDP complex (PDB entry 2FFV) are the most compact ones […]

[1] = ligand molar ratio GalNAc-T2:ligand 1:10
[2] = ligand molar ratio GalNAc-T2:ligand 1:20

T1 sequence (Q10471 75-571 limits assumed): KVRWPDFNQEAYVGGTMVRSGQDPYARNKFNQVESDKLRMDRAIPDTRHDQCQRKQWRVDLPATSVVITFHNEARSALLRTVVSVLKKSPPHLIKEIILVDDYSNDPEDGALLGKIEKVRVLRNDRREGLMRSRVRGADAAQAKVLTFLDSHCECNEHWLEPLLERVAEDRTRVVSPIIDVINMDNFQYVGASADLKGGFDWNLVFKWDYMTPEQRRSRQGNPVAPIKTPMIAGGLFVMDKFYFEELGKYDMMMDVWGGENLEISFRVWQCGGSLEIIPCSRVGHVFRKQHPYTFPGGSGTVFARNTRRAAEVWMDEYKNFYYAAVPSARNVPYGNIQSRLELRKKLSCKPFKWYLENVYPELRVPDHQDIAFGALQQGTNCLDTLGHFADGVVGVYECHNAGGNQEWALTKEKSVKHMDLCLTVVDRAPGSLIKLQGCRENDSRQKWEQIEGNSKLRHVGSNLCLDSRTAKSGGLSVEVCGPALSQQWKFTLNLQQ

Structure (SMILES) | effect on GalNAc-T2 dimers (in words) (GalNAc-T2 fixed at 5 mg ml−1, increasing concentrations of peptide) | Rg from p(r) (GNOM) (ligand molar ratio 1:10) [Å] | Dmax (ligand molar ratio 1:10) [Å] | Rg from p(r) (GNOM) (ligand molar ratio 1:20) [Å] | Dmax (ligand molar ratio 1:20) [Å] | Rg (Guinier) [1] [Å] | Rg (Guinier) [2] [Å] | Rg (Guinier) (peptide + UDP (1:10)) [Å] | Rg from p(r) (GNOM) (peptide + UDP (1:10)) [Å] | Dmax (peptide + UDP (1:10)) [Å] | Rg from p(r) (GNOM) (ligand molar ratio 1:5) [Å] | Dmax (ligand molar ratio 1:5) [Å] | Rg from p(r) (GNOM) (ligand molar ratio 1:50) [Å] | Dmax (ligand molar ratio 1:50) [Å] | Rg (Guinier) (ligand molar ratio GalNAc-T2:ligand 1:5) [Å] | Rg (Guinier) (ligand molar ratio GalNAc-T2:ligand 1:50) [Å]
CC(=O)NCC(=O)N[C@H](C(=O)N[C@H](C(=O)N1CCC[C@H]1C(=O)N[C@@H](CO)C(=O)N1CCC[C@H]1C(=O)N[C@H](C(=O)N1CCC[C@H]1C(=O)N[C@H](C(=O)N[C@H](C(=O)N[C@@H](CO)C(=O)N[C@H](C(=O)N[C@H](C(=O)N[C@@H](CO)C(=O)N[C@@H](C)C(N)=O)[C@@H](C)O[C@H]1O[C@H](CO)[C@H](O)[C@H](O)[C@H]1NC(C)=O)[C@@H](C)O)[C@@H](C)O)[C@@H](C)O)C(C)C)[C@@H](C)O)[C@@H](C)O [MUC5AC-13] (Ac-GTTPSPVPTTSTT(αGalNAc)SA-NH2; N-terminus assumed) | dimers almost disappear from solution | 30.6 | 112 | 29.2 | 102 | 30.2±0.2 | 29.1±0.1 | 30.7±0.4 | 31.7 | 112 | – | – | – | – | – | –
O=c1ccn([C@@H]2O[C@H](COP(=O)(O)OP(=O)(O)O)[C@@H](O)[C@H]2O)c(=O)[nH]1 [UDP, uridine diphosphate, reference compound] | – | 35.0 | 123 | 34.5 | 122 | 34.4±0.3 | 34.0±0.2 | – | – | – | 34.3 | 121 | 36.0 | 129 | 32.7±0.3 | 36.0±0.3
